# US10513521B2, “Compositions and methods for inhibiting BMP” (The Brigham and Women's Hospital, Inc., priority 2014, dated 2019)
# Residue numbers refer to the chain shown, from its start.
# How the values were obtained:
# [1] = Cell-based assay, TGFb1 (Cell IC50)
# ALK1 = ALK1 (Homo sapiens, UniProt P37023); assay: TR-FRET enzymatic ALK kinase assay, ALK1
# Procedure: (§1) Briefly, the ALKs enzymatic assay was initiated by dispense 2.5 μl enzyme in 1× kinase reaction buffer. The assay plate was then added with compounds followed by incubation at room temperature for 10 minutes. Then 2.5 μl/well substrate was added.
# ALK2 [2] = biological target: T1, ALK2 (Mus musculus, UniProt P37172); assay: HTRF pSMAD1 cell-based ALK2 assay (C2C12 cells, BMP6 as agonist); conditions: cell-based assay, BMP6; read-out: Cell IC50 BMP6
# T1 construct: The C2C12 cell line was selected for the measurement of ALK2 activity using BMP6 as the agonist; host or cells: C2C12
# T1 sequence (P37172 21-509): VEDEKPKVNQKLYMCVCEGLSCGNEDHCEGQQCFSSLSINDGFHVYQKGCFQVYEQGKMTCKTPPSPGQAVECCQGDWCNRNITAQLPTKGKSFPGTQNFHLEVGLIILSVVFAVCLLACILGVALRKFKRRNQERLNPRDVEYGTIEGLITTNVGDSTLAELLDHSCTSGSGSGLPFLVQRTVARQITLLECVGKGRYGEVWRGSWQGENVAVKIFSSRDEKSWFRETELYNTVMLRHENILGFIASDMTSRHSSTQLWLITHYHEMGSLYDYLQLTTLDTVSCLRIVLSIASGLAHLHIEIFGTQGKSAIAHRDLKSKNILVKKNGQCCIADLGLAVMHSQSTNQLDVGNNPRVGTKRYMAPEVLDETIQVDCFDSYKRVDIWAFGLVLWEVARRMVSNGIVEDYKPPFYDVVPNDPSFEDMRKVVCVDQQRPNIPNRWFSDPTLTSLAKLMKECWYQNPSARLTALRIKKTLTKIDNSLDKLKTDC
# How it was run: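 Phospho-SMAD1 HTRF readout, detection incubated overnight at room temperature. Before that: starved cells in 0.1% FBS for 4 h, 30 min compound pretreatment, then 30 min agonist, BMP6 on C2C12 or BMP9 on BAOEC.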
# ALK6 = ALK6 (Homo sapiens, UniProt O00238); assay: TR-FRET enzymatic ALK kinase assay, ALK6
# Procedure: as §1
# ALK5 = biological target: T2, ALK5 (Homo sapiens, UniProt P36897); assay: TR-FRET enzymatic ALK kinase assay, ALK5
# T2 sequence (P36897 34-503): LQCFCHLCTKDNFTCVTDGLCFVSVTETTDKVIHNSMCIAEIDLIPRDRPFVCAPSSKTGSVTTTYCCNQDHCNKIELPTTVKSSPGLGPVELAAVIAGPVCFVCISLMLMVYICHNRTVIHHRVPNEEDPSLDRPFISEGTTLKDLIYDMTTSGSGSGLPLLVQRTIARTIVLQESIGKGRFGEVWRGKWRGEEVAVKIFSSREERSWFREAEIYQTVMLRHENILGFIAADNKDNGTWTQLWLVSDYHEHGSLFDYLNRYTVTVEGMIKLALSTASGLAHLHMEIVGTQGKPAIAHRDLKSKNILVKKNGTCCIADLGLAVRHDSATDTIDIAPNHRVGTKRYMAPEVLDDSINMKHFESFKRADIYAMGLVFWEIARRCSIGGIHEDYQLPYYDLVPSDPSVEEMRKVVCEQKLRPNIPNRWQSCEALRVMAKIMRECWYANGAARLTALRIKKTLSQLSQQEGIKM
# Procedure: Six ALK kinase enzyme assays were developed for determination of compound activities on ALK1, ALK2, ALK3, ALK4, ALK5 and ALK6.
# as §1
# ALK4 = biological target: T3, ALK4 (Homo sapiens, UniProt P36896); assay: TR-FRET enzymatic ALK kinase assay, ALK4
# T3 sequence (P36896 24-505): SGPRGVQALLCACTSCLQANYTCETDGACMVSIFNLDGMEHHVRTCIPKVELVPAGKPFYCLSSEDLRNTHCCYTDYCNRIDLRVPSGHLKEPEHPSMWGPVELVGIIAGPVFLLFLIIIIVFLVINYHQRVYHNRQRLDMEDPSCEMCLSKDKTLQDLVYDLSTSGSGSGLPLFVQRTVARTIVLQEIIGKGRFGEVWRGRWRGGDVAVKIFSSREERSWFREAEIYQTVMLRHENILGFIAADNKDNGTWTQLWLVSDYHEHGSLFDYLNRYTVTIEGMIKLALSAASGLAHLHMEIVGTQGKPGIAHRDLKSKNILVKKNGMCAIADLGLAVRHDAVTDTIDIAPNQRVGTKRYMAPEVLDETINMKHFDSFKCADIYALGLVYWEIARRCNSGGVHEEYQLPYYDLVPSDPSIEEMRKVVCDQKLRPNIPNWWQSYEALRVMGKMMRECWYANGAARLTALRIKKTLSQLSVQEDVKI
# Procedure: as §1
# ALK3 = ALK3 (Homo sapiens, UniProt P36894); assay: TR-FRET enzymatic ALK kinase assay, ALK3
# Procedure: as §1
# ALK2 [3] = biological target: T4, ALK2 (Homo sapiens, UniProt Q04771); assay: TR-FRET enzymatic ALK kinase assay, ALK2
# T4 sequence (Q04771 21-509): T1 sequence (P37172 21-509) with V1M, Q10P, I121L, E162D, S310P
# Procedure: as §1
# Sequence of ALK6 (O00238 14-502): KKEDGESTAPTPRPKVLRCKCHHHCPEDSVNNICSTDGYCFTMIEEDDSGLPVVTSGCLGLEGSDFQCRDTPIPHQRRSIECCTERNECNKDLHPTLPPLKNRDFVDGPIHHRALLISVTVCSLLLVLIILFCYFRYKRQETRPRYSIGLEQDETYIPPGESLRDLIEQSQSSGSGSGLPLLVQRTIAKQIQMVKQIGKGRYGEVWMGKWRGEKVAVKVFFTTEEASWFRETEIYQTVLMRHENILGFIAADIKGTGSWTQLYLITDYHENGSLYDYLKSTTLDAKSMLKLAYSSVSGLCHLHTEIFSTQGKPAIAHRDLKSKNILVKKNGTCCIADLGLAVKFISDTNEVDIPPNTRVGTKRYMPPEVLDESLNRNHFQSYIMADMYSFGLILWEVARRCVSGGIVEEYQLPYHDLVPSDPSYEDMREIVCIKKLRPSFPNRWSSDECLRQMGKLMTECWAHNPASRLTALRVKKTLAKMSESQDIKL
# Sequence of ALK1 (P37023 22-503): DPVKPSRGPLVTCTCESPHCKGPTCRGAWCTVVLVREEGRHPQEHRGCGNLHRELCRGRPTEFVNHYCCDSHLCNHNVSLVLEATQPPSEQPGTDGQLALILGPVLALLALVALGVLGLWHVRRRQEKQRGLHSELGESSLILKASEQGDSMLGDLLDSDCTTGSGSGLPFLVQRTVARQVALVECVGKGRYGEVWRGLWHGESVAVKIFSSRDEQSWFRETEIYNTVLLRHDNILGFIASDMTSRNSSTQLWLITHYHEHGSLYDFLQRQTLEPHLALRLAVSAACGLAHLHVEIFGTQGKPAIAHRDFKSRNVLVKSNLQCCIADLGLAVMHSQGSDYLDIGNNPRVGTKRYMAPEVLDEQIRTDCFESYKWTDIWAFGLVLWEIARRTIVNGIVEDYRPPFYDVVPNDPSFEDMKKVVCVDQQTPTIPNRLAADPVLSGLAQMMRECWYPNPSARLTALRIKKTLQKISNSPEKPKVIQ
# Sequence of ALK3 (P36894 24-532): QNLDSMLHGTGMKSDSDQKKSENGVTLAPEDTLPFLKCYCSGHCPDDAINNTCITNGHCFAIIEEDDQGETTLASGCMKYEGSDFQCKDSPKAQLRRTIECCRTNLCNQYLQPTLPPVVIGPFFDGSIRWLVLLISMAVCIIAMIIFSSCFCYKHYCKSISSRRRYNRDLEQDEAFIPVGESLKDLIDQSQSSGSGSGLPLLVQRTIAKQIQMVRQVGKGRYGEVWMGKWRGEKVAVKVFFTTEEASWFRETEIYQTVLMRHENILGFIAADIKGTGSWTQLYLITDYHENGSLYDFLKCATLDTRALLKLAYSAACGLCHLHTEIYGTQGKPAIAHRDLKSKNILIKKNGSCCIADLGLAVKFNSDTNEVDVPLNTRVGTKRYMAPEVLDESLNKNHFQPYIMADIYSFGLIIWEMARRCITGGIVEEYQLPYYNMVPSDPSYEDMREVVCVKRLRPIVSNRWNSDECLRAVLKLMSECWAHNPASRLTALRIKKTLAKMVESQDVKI
Structure (SMILES),IC50 [1],IC50 (ALK1),IC50 (ALK2 [2]),IC50 (ALK6),IC50 (ALK5),IC50 (ALK4),IC50 (ALK3),IC50 (ALK2 [3])
"c1ccc(-c2cnn3cc(-c4ccc(CCN5CCCCC5)cc4)cnc23)cc1 [Compound 88, 3-phenyl-6-(4-(2-(piperidin-1-yl)ethyl)phenyl)pyrazolo[1,5-a]pyrimidine]",0.058 µM,1.3 µM,5.92 µM,> 10 µM,> 10 µM,> 10 µM,> 10 µM,0.42 µM
"c1cc(-c2cc[nH]n2)cc(-c2cnn3cc(-c4ccc(CCN5CCCCC5)cc4)cnc23)c1 [Compound 90, 3-(3-(1H-pyrazol-3-yl)phenyl)-6-(4-(2-(piperidin-1-yl)ethyl)phenyl)pyrazolo[1,5-a]pyrimidine]",15 µM,0.068 µM,0.397 µM,> 10 µM,> 10 µM,0.87 µM,> 10 µM,0.014 µM
"CN1CCC(c2ccc(-c3cnc4c(-c5cccc(S(C)(=O)=O)c5)cnn4c3)cc2)CC1 [Compound 91, 6-(4-(1-methylpiperidin-4-yl)phenyl)-3-(3-(methylsulfonyl)phenyl)pyrazolo[1,5-a]pyrimidine]",59.2 µM,0.22 µM,0.179 µM,> 10 µM,> 10 µM,> 10 µM,3.2 µM,0.052 µM
"CN1CCC(c2ccc(-c3cnc4c(-c5cccc(C(C)(C)O)c5)cnn4c3)cc2)CC1 [Compound 92, 2-(3-(6-(4-(1-methylpiperidin-4-yl)phenyl)pyrazolo[1,5-a]pyrimidin-3-yl)phenyl)propan-2-ol]",17 µM,0.091 µM,0.266 µM,> 10 µM,> 10 µM,> 10 µM,1.6 µM,0.026 µM
"CS(=O)(=O)c1cccc(-c2cnn3cc(-c4ccc(C5CCNCC5)cc4)cnc23)c1 [Compound 94, 3-(3-(methylsulfonyl)phenyl)-6-(4-(piperidin-4-yl)phenyl)pyrazolo[1,5-a]pyrimidine]",4.4 µM,0.22 µM,0.43 µM,> 10 µM,> 10 µM,> 10 µM,6.1 µM,0.053 µM
"NS(=O)(=O)c1cccc(-c2cnn3cc(-c4ccc(C5CCNCC5)cc4)cnc23)c1 [Compound 95, 3-(6-(4-(piperidin-4-yl)phenyl)pyrazolo[1,5-a]pyrimidin-3-yl)benzenesulfonamide]",0.064 µM,0.52 µM,1.5 µM,> 10 µM,> 10 µM,> 10 µM,9.7 µM,0.079 µM
"CC(C)(CN1CCCCC1)Oc1ccc(-c2cnc3c(-c4cccc(S(N)(=O)=O)c4)cnn3c2)cc1 [Compound 96, 3-(6-(4-((2-methyl-1-(piperidin-1-yl)propan-2-yl)oxy)phenyl)pyrazolo[1,5-a]pyrimidin-3-yl)benzenesulfonamide]",0.919 µM,0.24 µM,0.152 µM,> 10 µM,> 10 µM,6 µM,4.9 µM,0.066 µM
"CC(O)c1cccc(-c2cnn3cc(-c4ccc(CCN5CCCCC5)cc4)cnc23)c1 (stereo not drawn) [Compound 97, 1-(3-(6-(4-(2-(piperidin-1-yl)ethyl)phenyl)pyrazolo[1,5-a]pyrimidin-3-yl)phenyl)ethanol]",0.0012 µM,0.51 µM,1.16 µM,> 10 µM,> 10 µM,> 10 µM,3 µM,0.099 µM
"CC(O)c1cccc(-c2cnn3cc(-c4ccc(C5CCNCC5)cc4)cnc23)c1 (stereo not drawn) [Compound 98, 1-(3-(6-(4-(piperidin-4-yl)phenyl)pyrazolo[1,5-a]pyrimidin-3-yl)phenyl)ethanol]",7 µM,0.31 µM,0.668 µM,> 10 µM,> 10 µM,> 10 µM,3.3 µM,0.072 µM
"CC(C)(O)c1cccc(-c2cnn3cc(-c4ccc(CCN5CCCCC5)cc4)cnc23)c1 [Compound 99, 2-(3-(6-(4-(2-(piperidin-1-yl)ethyl)phenyl)pyrazolo[1,5-a]pyrimidin-3-yl)phenyl)propan-2-ol]",46 µM,0.25 µM,0.509 µM,> 10 µM,> 10 µM,> 10 µM,2.2 µM,0.043 µM
"CC(C)(O)c1cccc(-c2cnn3cc(-c4ccc(C5CCNCC5)cc4)cnc23)c1 [Compound 100, 2-(3-(6-(4-(piperidin-4-yl)phenyl)pyrazolo[1,5-a]pyrimidin-3-yl)phenyl)propan-2-ol]",> 100 µM,0.12 µM,0.477 µM,> 10 µM,> 10 µM,> 10 µM,3.3 µM,0.039 µM
"CC(C)(CN1CCCCC1)Oc1ccc(-c2cnc3c(-c4cccc(S(C)(=O)=O)c4)cnn3c2)cc1 [Compound 101, 6-(4-((2-methyl-1-(piperidin-1-yl)propan-2-yl)oxy)phenyl)-3-(3-(methylsulfonyl)phenyl)pyrazolo[1,5-a]pyrimidine]",3.28 µM,0.067 µM,0.203 µM,> 10 µM,> 10 µM,6 µM,2.1 µM,0.028 µM
